Experimental data: patent US10342796B2, “Acrylanilide derivative, preparation method, and applications thereof in pharmacy” (Ancureall Pharmaceutical (Shanghai) Co., Ltd., priority 2015, dated 2019)

What was measured:
Assay in all cases: Growth inhibition GI50 in vitro (CCK8/MTT, 72 h)
Type in all cases: cell-based, human
H1975 (EGFR L858R/T790M) = conditions: Homo sapiens, NCI-H1975; Table 13, 72 h; read-out: Range of GI50 H1975 (EGFR L858R/T790M)
Description: (§1) PC-9ER is an acquired Erlotinib resistance cell line of PC-9 cells developed by the investor. […] The four cell lines above were cultured with 1×RPMI1640 complete medium (supplement with 10% FBS). Human colon cancer cell line SW48 (EGFR G719S positive, ATCC). was cultured with L15 complete medium (10% FB S).
(§2) The suspension cells were collected by centrifugation. The supernatant was discard and the cell pellet was resuspended and counted. Different cell concentrations (5˜10×10^4 cells/mL) were prepared according to the growth cycle of each cell line and then seeded on a 96-well plate (Corning), 100 μL/well. The cells were incubated over night at 37° C., 5% CO2. The compounds were added to the cells on the second day with 2 wells in parallel. The final concentration of organic solvent shall not exceed 1%. The cells were continually incubated for 72 h, and then subjected to MTT assay.
(§3) The present compounds and the reference compounds were dissolved with DMSO (Sigma), respectively. […] The storage concentration of compounds was 10 mM and kept at −20° C. They were diluted by 2 times or 10 times with serial dilution before using.
(§4) Dojindo CCK8 reagent kit was used as MTT assay. […] FC meter was used as microplate reader.
(§5) Adherent cell culture medium was discard and immediately replaced with fresh prepared medium which contains 10% CCK8 reagent (100 μL/well). For the suspension cells, CCK8 was directly added to 10% of the final concentration. The cells were continually incubated for 1˜4 h. When the color of control wells turned to dark yellow, the absorption value was measured at OD450 nm. The cell growth rate was calculated according to the following formula: cell growth rate (%)=100*(T−T0)/(C−T0), T=optical density of drug treatment cell well—optical density of blank control well; T0=optical density of cell well before drug treatment—optical density of blank control well; C=optical density of cell well of solvent control group—optical density of blank control well. […] The experiment was independently repeated 1˜3 times, and subject to biological statistical analysis.

PC-9 (EGFR dE746-A750) = conditions: Homo sapiens; Table 13, 72 h; read-out: Range of GI50 PC-9 (EGFR dE746-A750)
Description: as §1, §2, §3, §4, §5

N87 (HER2 Amp) = conditions: Homo sapiens; Table 13, 72 h; read-out: Range of GI50 N87 (HER2 Amp)
A549 (EGFR WT) = conditions: Homo sapiens, A549; Table 13, 72 h; read-out: Range of GI50 A549 (EGFR WT)
Source text: EGFR wild type cell lines: human epidermal cancer cell line A431 (EGFR WT, amplification and high expression, from Shanghai Cell Bank of Chinese Academy of Sciences and ATCC), NSCLC cell lines NCI-H460 (EGFR WT, Kras G61H and PI3KCA E545K mutants, ATCC) and NCI-H1299 (EGFR WT, ATCC), melanoma cell line A375 (EGFR WT and BRAF V600E mutant, from Shanghai Cell Bank of Chinese Academy of Sciences, ATCC), human lung cancer cell line NCI-H292 (EGFR WT, from human lung mucoepidermoid carcinoma/lymphatic metastasis, purchased from Shanghai Cell Bank of Chinese Academy of Sciences) were cultured with 1×RPMI1640 complete medium which was supplement with 10% FBS. NSCLC cell line A549 (EGFR WT and Kras G12S mutant, from Shanghai Cell Bank of Chinese Academy of Sciences) was cultured with 1×Ham'S F12K complete medium which was supplement with 10% FBS, 1% double-antibiotics and 2 mM glutamine.
as §2, §3, §4, §5

Structure (SMILES)	GI50 (H1975 (EGFR L858R/T790M))	GI50 (PC-9 (EGFR dE746-A750))	GI50 (N87 (HER2 Amp))	GI50 (A549 (EGFR WT))
C=CC(=O)Nc1cc(Nc2ncc(Cl)c(-n3ccc4c(OC)cccc43)n2)c(OC)cc1N(C)CCN(C)C [Compound 203, N-(5-(4-(4-methoxyl-1H-indol-1-yl)-5-chloropyrimidin-2-ylamino)-2-(2-(dimethylamino-ethyl)-methyl-amino)-4-methoxyl-phenyl)-acrylamide]	< 10 nM	< 10 nM	< 10 nM	> 1000 nM
C=CC(=O)Nc1cc(Nc2nccc(-n3ccc4c(O)cccc43)n2)c(OC)cc1N(C)CCN(C)C [Compound 204, N-(5-(4-(4-hydroxyl-1H-indol-1-yl)-pyrimidin-2-ylamino)-2-(2-(dimethylamino-ethyl)-methyl-amino)-4-methoxyl-phenyl)-acrylamide]	10 to 100 nM	10 to 100 nM	< 10 nM	> 1000 nM
C=CC(=O)Nc1cc(Nc2nccc(-n3ccc4c(OCCCCCC)cccc43)n2)c(OC)cc1N(C)CCN(C)C [Compound 206, N-(5-(4-(4-n-hexyloxy-1H-indol-1-yl)-pyrimidin-2-ylamino)-2-(2-(dimethylamino-ethyl)-methyl-amino)-4-methoxyl-phenyl)-acrylamide]	100 to 1000 nM	100 to 1000 nM	100 to 1000 nM	> 1000 nM
C=CC(=O)Nc1cc(Nc2nccc(-n3ccc4c(OCC5CCCO5)cccc43)n2)c(OC)cc1N(C)CCN(C)C (centres unmarked) [Compound 207, N-(5-(4-(4-((tetrahydrofuran-2-yl)-methoxyl)-1H-indol-1-yl)-pyrimidin-2-ylamino)-2-(2-(dimethylamino-ethyl)-methyl-amino)-4-methoxyl-phenyl)-acrylamide]	10 to 100 nM	10 to 100 nM	10 to 100 nM	> 1000 nM
C=CC(=O)Nc1cc(Nc2nccc(-n3ccc4c(OC)cccc43)n2)c(OC)cc1N1CCC(N2CCN(C)CC2)CC1 [Compound 208, N-(5-(4-(4-methoxyl-1H-indol-1-yl)-pyrimidin-2-ylamino)-2-(4-(4-methyl-piperazin-1-yl)-piperidin-1-yl)-4-methoxyl-phenyl)-acrylamide]	100 to 1000 nM	100 to 1000 nM	10 to 100 nM	> 1000 nM
C=CC(=O)Nc1cc(Nc2nccc(-n3ccc4c(-n5c(C)ccc5C)cc(Br)cc43)n2)c(OC)cc1N(C)CCN(C)C [Compound 214]	10 to 100 nM	10 to 100 nM	10 to 100 nM	> 1000 nM
C=CC(=O)Nc1cc(Nc2cc(Nc3ccc(OCCN4CCOCC4)c(Cl)c3)ncn2)c(OC)cc1N(C)CCN(C)C [Compound 215, N-(5-(6-(3-chloro-4-(2-morpholin-4-yl-ethoxyl)-phenylamino)-pyrimidin-4-ylamino)-2-((2-dimethylamino-ethyl)-methyl-amino)-4-methoxyphenyl)-acrylamide]	10 to 100 nM	< 10 nM	10 to 100 nM	> 1000 nM
C=CC(=O)Nc1cc(Nc2cc(Nc3ccc(OC)c(Cl)c3)ncn2)c(OC)cc1OCCN(C)C [Compound 218, N-(5-(6-(3-chloro-4-methoxyl-phenylamino)-pyrimidin-4-ylamino)-2-(2-dimethylamino-ethoxyl)-4-methoxyl-phenyl)-acrylamide]	10 to 100 nM	< 10 nM	10 to 100 nM	> 1000 nM
C=CC(=O)Nc1cc(Nc2cc(Nc3ccc(OCCC(C)C)c(Cl)c3)ncn2)c(OC)cc1N(C)CCN(C)C [Compound 219, N-(5-(6-(3-chloro-4-(3-methylbutoxy)-phenylamino)-pyrimidin-4-ylamino)-2-((2-dimethylaminoethyl)-methyl-amino)-4-methoxyphenyl)-acrylamide]	10 to 100 nM	< 10 nM	10 to 100 nM	> 1000 nM
C=CC(=O)Nc1cc(Nc2cc(Nc3ccc(OC)c(C(F)(F)F)c3)ncn2)c(OC)cc1N(C)CCN(C)C [Compound 222, N-(5-(6-(4-methoxyl-3-trifluoromethyl-phenylamino)-pyrimidin-4-yl-amino)-2-((2-dimethylamino-ethyl)-methyl-amino)-4-methoxyl-phenyl)-acrylamide]	10 to 100 nM	< 10 nM	10 to 100 nM	> 1000 nM
C=CC(=O)Nc1cc(Nc2cc(Nc3ccc(OCc4nccs4)c(Cl)c3)ncn2)c(OC)cc1N(C)CCN(C)C [Compound 223, N-(5-(6-(3-chloro-4-(thiazol-2-ylmethoxy)-phenylamino)-pyrimidin-4-ylamino)-2-((2-dimethylamino-ethyl)-methyl-amino)-4-methoxyl-phenyl)-acrylamide]	10 to 100 nM	10 to 100 nM	10 to 100 nM	> 1000 nM
C=CC(=O)Nc1cc(Nc2cc(Nc3ccc(OC)c(Br)c3)ncn2)c(OC)cc1N(C)CCN(C)C [Compound 224, N-(5-(6-(4-methoxyl-3-bromo-phenylamino)-pyrimidin-4-yl-amino)-2-((2-dimethylamino-ethyl)-methyl-amino)-4-methoxyl-phenyl)-acrylamide]	10 to 100 nM	< 10 nM	10 to 100 nM	> 1000 nM
C=CC(=O)Nc1cc(Nc2cc(Nc3ccc(OC)c(Cl)c3)ncn2)c(OC)cc1N(C)CCN1CCCC1 [Compound 225]	10 to 100 nM	10 to 100 nM	10 to 100 nM	
C=CC(=O)Nc1cc(Nc2cc(Nc3ccc(F)c(C(F)(F)F)c3)ncn2)c(OC)cc1N(C)CCN(C)C [Compound 226, N-(5-(6-(4-fluoro-3-trifluoromethyl-phenylamino)-pyrimidin-4-yl-amino)-2-((2-dimethylamino-ethyl)-methyl-amino)-4-methoxyl-phenyl)-acrylamide]	10 to 100 nM	< 10 nM	10 to 100 nM	> 1000 nM
C=CC(=O)Nc1cc(Nc2cc(Nc3ccc(OC)c(Cl)c3)ncn2)c(OC)cc1N1CCN(C2CCN(C)CC2)CC1 [Compound 227, N-(5-(6-(3-chloro-4-methoxyl-phenylamino)-pyrimidin-4-ylamino)-2-(4-(1-methylpiperidin-4-yl)-piperazin-1-yl)-4-methoxyl-phenyl)-acrylamide]	100 to 1000 nM	< 10 nM	10 to 100 nM	> 1000 nM
C=CC(=O)Nc1cc(Nc2cc(Nc3ccc(Cl)c(C(F)(F)F)c3)ncn2)c(OC)cc1N(C)CCN(C)C [Compound 228, N-(5-(6-(4-chloro-3-trifluoromethyl-phenylamino)-pyrimidin-4-yl-amino)-2-((2-dimethylamino-ethyl)-methyl-amino)-4-methoxyl-phenyl)-acrylamide]	10 to 100 nM	< 10 nM	10 to 100 nM	> 1000 nM
C=CC(=O)Nc1cc(Nc2cc(Nc3ccc(C(F)(F)F)c(Cl)c3)ncn2)c(OC)cc1N(C)CCN(C)C [Compound 234, N-(5-(6-(3-chloro-4-trifluoromethyl-phenylamino)-pyrimidin-4-yl-amino)-2-((2-dimethylamino-ethyl)-methyl-amino)-4-methoxyl-phenyl)-acrylamide]	10 to 100 nM	10 to 100 nM	10 to 100 nM	> 1000 nM
C=CC(=O)Nc1cc(Nc2cc(Nc3ccc(OC(F)(F)F)c(Cl)c3)ncn2)c(OC)cc1N(C)CCN(C)C [Compound 235, N-(5-(6-(3-chloro-4-trifluoromethoxy-phenylamino)-pyrimidin-4-yl-amino)-2-((2-dimethylamino-ethyl)-methyl-amino)-4-methoxyl-phenyl)-acrylamide]	10 to 100 nM	10 to 100 nM	10 to 100 nM	> 1000 nM
